In one assay the target is T1, HiBit-BRM fusion protein (Homo sapiens, UniProt P51531).
T1 construct: expressed in transfected cells
The experiment in a line: HiBiT-BRM cell-based degradation assay (Nano-Glo HiBiT lytic detection, 24 h). The conditions noted are these: HeLa cell line expressing HiBiT-BRM; for DC50: read-out: BRM HiBit Degradation IC50. Put shortly: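 Stable HeLa HiBiT-BRM cells treated 24 h with compounds (10-point 3-fold dilutions, 30 μM final top dose, duplicate). HiBiT levels read by Nano-Glo lytic luminescence; % degradation normalised to DMSO (high control) and 2 μM reference BRM/BRG1 degrader (low control).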
Background: With HiBiT, luminescence reflects the tagged protein that the partner subunit can reach.

The target in assay [1] is T2, HiBit-BRG1 fusion protein (Homo sapiens, UniProt P51532).
T2 construct: expressed in transfected cells
Description: HiBiT-BRG1 cell-based degradation assay (Nano-Glo HiBiT lytic detection, 24 h). The conditions noted are these: HeLa cell line expressing HiBit-BRG1 and LgBit; for Dmax: read-out: BRG1 HiBit Degradation Maximum (%); for DC50: read-out: BRMG1 HiBit Degradation IC50. The essentials: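 HeLa cells stably expressing HiBiT-BRG1 and LgBiT, 5000 per well, compound-treated 24 h, equilibrated 15 min at room temperature, then lysed with LgBiT-containing Nano-Glo HiBiT lytic reagent and luminescence read. % degradation normalised between DMSO (high control) and 2 μM reference BRM/BRG1 degrader (low control).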

Some results are limits rather than exact numbers.

T2 sequence (P51532 whole entry, the tested form may be a part): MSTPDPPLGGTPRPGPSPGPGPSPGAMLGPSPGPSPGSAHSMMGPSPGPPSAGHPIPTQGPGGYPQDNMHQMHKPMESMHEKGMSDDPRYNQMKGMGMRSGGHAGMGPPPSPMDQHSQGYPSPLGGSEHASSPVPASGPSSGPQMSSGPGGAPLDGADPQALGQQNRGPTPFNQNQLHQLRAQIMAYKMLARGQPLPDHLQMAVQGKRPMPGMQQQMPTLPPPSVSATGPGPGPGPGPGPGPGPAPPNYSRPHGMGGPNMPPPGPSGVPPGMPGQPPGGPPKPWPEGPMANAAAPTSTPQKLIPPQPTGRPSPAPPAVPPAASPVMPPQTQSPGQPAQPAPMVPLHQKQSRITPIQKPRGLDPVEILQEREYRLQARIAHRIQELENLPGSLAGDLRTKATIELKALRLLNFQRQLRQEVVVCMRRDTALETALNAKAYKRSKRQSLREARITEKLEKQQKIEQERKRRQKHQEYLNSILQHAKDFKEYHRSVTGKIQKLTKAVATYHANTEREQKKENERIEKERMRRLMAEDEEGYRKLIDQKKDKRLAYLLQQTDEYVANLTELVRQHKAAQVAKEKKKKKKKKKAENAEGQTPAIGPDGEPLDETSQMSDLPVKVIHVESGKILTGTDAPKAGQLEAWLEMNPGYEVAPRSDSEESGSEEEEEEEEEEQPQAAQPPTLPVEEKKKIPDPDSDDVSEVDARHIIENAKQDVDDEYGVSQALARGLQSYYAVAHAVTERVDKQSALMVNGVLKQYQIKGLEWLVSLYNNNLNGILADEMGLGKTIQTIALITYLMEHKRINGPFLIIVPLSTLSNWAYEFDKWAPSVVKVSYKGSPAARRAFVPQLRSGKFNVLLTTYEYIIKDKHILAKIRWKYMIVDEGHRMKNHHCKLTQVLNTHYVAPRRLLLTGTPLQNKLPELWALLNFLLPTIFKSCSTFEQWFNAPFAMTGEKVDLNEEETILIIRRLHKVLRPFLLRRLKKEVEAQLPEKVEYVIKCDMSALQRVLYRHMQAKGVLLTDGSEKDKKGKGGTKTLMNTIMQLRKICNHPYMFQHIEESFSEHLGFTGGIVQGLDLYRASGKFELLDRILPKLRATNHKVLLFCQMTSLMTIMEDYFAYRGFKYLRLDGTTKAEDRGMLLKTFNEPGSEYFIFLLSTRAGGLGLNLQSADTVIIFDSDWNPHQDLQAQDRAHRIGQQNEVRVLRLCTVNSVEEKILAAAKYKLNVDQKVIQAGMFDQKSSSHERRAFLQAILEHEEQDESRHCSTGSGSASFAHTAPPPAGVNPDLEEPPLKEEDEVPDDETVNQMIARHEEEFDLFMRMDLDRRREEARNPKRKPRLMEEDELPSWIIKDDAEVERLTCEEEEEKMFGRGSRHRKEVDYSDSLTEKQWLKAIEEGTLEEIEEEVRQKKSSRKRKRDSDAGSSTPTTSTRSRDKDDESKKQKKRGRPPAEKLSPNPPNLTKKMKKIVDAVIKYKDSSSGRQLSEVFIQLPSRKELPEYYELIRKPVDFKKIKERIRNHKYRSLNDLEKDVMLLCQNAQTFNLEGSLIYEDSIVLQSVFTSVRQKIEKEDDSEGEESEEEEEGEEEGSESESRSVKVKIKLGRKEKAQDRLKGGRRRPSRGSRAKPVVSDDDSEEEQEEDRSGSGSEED
T1 sequence (P51531 whole entry, the tested form may be a part): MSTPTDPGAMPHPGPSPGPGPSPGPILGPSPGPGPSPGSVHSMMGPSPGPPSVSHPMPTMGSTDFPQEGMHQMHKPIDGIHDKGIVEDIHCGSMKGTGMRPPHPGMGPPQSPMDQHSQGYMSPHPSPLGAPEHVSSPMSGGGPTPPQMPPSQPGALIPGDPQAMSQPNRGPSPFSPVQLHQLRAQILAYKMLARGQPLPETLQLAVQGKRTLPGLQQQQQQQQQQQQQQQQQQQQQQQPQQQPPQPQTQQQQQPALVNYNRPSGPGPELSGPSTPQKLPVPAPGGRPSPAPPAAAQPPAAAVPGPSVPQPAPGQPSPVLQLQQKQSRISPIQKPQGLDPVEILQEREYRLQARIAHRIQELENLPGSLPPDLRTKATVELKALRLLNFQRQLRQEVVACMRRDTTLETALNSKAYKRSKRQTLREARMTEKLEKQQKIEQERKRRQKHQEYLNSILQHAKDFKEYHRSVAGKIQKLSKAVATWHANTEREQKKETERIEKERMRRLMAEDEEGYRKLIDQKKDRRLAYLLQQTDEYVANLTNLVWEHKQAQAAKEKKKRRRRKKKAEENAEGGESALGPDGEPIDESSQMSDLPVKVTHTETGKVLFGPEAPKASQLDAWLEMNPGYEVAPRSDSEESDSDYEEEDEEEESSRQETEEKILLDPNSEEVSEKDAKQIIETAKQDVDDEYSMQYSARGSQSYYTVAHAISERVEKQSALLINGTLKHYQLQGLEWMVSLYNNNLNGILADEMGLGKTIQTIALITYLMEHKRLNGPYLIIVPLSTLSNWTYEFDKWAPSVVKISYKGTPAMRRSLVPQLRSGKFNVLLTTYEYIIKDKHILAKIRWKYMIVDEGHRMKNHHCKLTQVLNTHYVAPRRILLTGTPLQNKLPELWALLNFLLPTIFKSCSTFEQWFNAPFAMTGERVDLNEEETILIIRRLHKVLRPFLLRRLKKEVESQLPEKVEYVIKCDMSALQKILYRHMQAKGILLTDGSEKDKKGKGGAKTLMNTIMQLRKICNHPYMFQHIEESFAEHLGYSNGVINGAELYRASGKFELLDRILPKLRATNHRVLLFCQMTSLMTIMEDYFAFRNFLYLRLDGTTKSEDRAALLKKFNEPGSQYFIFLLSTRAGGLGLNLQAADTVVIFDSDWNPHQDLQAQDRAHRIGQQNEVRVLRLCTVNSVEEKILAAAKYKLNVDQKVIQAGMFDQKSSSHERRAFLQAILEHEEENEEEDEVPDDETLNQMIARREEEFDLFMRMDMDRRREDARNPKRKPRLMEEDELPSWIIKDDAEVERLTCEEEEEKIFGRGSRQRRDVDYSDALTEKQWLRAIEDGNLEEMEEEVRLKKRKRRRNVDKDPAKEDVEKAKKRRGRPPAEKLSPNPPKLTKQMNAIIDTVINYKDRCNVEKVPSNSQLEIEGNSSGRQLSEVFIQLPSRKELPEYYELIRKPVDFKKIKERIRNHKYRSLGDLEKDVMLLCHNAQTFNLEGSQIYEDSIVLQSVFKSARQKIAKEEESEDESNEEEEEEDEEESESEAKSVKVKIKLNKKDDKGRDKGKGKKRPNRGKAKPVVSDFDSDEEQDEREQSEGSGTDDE

Take `CC(C)[C@@H](C(=O)N1C[C@H](O)C[C@H]1C(=O)N[C@@H](C)c1ccccc1)c1cc(-c2cnc(N3CC[C@H](c4cc5nnc(-c6ccccc6O)cc5n4C4CC4)C3)nc2)no1` [Compound 93, (2S,4R)-1-((R)-2-(3-(2-((S)-3-(5-cyclopropyl-3-(2-hydroxyphenyl)-5H-pyrrolo[3,2-c]pyridazin-6-yl)pyrrolidin-1-yl)pyrimidin-5-yl)isoxazol-5-yl)-3-methylbutanoyl)-4-hydroxy-N-((S)-1-phenylethyl)pyrrolidine-2-carboxamide]: on HiBit-BRM fusion protein, the “BRM HiBit Degradation Maximum (%)” value is on record as “A (“A” indicates maximum degradation ≥75%)” and the DC50 was less than 10 nM. In addition, the Dmax in assay [1] is less than 50%.

As for `Cc1ncsc1-c1ccc([C@H](C)NC(=O)[C@@H]2C[C@@H](O)CN2C(=O)[C@@H](c2cc(-c3cnc(N4CC[C@@H](c5cc6nnc(-c7ccccc7O)cc6n5C56CC(C5)C6)C4)nc3)no2)C(C)C)cc1` [Compound 94, (2S,4R)-1-((R)-2-(3-(2-((R)-3-(5-(bicyclo[1.1.1]pentan-1-yl)-3-(2-hydroxyphenyl)-5H-pyrrolo[3,2-c]pyridazin-6-yl)pyrrolidin-1-yl)pyrimidin-5-yl)isoxazol-5-yl)-3-methylbutanoyl)-4-hydroxy-N-((S)-1-(4-(4-methylthiazol-5-yl)phenyl)ethyl)pyrrolidine-2-carboxamide], on HiBit-BRM fusion protein, the “BRM HiBit Degradation Maximum (%)” value was “A (“A” indicates maximum degradation ≥75%)” and the DC50 was less than 10 nM. The Dmax in assay [1] is less than 50%.

For the compound `Cc1ncsc1-c1ccc([C@H](C)NC(=O)[C@@H]2C[C@@H](O)CN2C(=O)[C@@H](c2cc(-c3cnc(N4CC[C@H](c5cc6nnc(-c7ccccc7O)cc6n5C56CC(C5)C6)C4)nc3)no2)C(C)C)cc1` [Compound 95, (2S,4R)-1-((R)-2-(3-(2-((S)-3-(5-(bicyclo[1.1.1]pentan-1-yl)-3-(2-hydroxyphenyl)-5H-pyrrolo[3,2-c]pyridazin-6-yl)pyrrolidin-1-yl)pyrimidin-5-yl)isoxazol-5-yl)-3-methylbutanoyl)-4-hydroxy-N-((S)-1-(4-(4-methylthiazol-5-yl)phenyl)ethyl)pyrrolidine-2-carboxamide], on HiBit-BRM fusion protein, the “BRM HiBit Degradation Maximum (%)” value was “A (“A” indicates maximum degradation ≥75%)” and the DC50 was less than 10 nM. Further, in assay [1], the Dmax is more than 50% and the DC50 was more than 10 nM.

As to `Cc1ncsc1-c1ccc([C@H](C)NC(=O)[C@@H]2C[C@@H](O)CN2C(=O)[C@@H](c2cc(N3CCC4(CC[C@H](c5cc6nnc(-c7ccccc7O)cc6n5C5CC5)C4)CC3)no2)C(C)C)cc1` [Compound 96, (2S,4R)-1-((R)-2-(3-((S)-2-(5-cyclopropyl-3-(2-hydroxyphenyl)-5H-pyrrolo[3,2-c]pyridazin-6-yl)-8-azaspiro[4.5]decan-8-yl)isoxazol-5-yl)-3-methylbutanoyl)-4-hydroxy-N-((S)-1-(4-(4-methylthiazol-5-yl)phenyl)ethyl)pyrrolidine-2-carboxamide], on HiBit-BRM fusion protein, the “BRM HiBit Degradation Maximum (%)” value is “A (“A” indicates maximum degradation ≥75%)” and the DC50 was less than 10 nM. In addition, in assay [1], the Dmax is more than 50% and the DC50 was more than 10 nM.

In the case of `Cc1ncsc1-c1ccc([C@H](C)NC(=O)[C@@H]2C[C@@H](O)CN2C(=O)[C@@H](c2cc(N3CCC4(CC[C@@H](c5cc6nnc(-c7ccccc7O)cc6n5C5CC5)C4)CC3)no2)C(C)C)cc1` [Compound 97, (2S,4R)-1-((R)-2-(3-((R)-2-(5-cyclopropyl-3-(2-hydroxyphenyl)-5H-pyrrolo[3,2-c]pyridazin-6-yl)-8-azaspiro[4.5]decan-8-yl)isoxazol-5-yl)-3-methylbutanoyl)-4-hydroxy-N-((S)-1-(4-(4-methylthiazol-5-yl)phenyl)ethyl)pyrrolidine-2-carboxamide], on HiBit-BRM fusion protein, the “BRM HiBit Degradation Maximum (%)” value is on record as “A (“A” indicates maximum degradation ≥75%)” and the DC50 is less than 10 nM. For the same compound, the Dmax in assay [1] was less than 50%.

`Cc1ncsc1-c1ccc([C@H](C)NC(=O)[C@@H]2C[C@@H](O)CN2C(=O)[C@@H](c2cc(N3CCC[C@H](c4cc5nnc(-c6ccccc6O)cc5n4C4CC4)C3)no2)C(C)C)cc1` [Compound 98, (2S,4R)-1-((R)-2-(3-((S)-3-(5-cyclopropyl-3-(2-hydroxyphenyl)-5H-pyrrolo[3,2-c]pyridazin-6-yl)piperidin-1-yl)isoxazol-5-yl)-3-methylbutanoyl)-4-hydroxy-N-((S)-1-(4-(4-methylthiazol-5-yl)phenyl)ethyl)pyrrolidine-2-carboxamide]: at HiBit-BRM fusion protein, the “BRM HiBit Degradation Maximum (%)” value is listed as “A (“A” indicates maximum degradation ≥75%)” and the DC50 is more than 10 nM. Besides, in assay [1], the Dmax is more than 75% and the DC50 was more than 10 nM.

Regarding `Cc1ncsc1-c1ccc([C@H](C)NC(=O)[C@@H]2C[C@@H](O)CN2C(=O)[C@@H](c2cc(N3CC[C@H](c4cc5nnc(-c6ccccc6O)cc5n4C4CC4)C3)no2)C(C)C)cc1` [Compound 99, (2S,4R)-1-((R)-2-(3-((S)-3-(5-cyclopropyl-3-(2-hydroxyphenyl)-5H-pyrrolo[3,2-c]pyridazin-6-yl)pyrrolidin-1-yl)isoxazol-5-yl)-3-methylbutanoyl)-4-hydroxy-N-((S)-1-(4-(4-methylthiazol-5-yl)phenyl)ethyl)pyrrolidine-2-carboxamide], on HiBit-BRM fusion protein, the “BRM HiBit Degradation Maximum (%)” value is on record as “A (“A” indicates maximum degradation ≥75%)” and the DC50 was less than 10 nM. Besides, in assay [1], the Dmax is more than 50% and the DC50 is more than 10 nM.

`Cc1ncsc1-c1ccc([C@H](C)NC(=O)[C@@H]2C[C@@H](O)CN2C(=O)[C@@H](c2cc(N3CCC[C@@H](c4cc5nnc(-c6ccccc6O)cc5n4C4CC4)C3)no2)C(C)C)cc1` [Compound 100, (2S,4R)-1-((R)-2-(3-((R)-3-(5-cyclopropyl-3-(2-hydroxyphenyl)-5H-pyrrolo[3,2-c]pyridazin-6-yl)piperidin-1-yl)isoxazol-5-yl)-3-methylbutanoyl)-4-hydroxy-N-((S)-1-(4-(4-methylthiazol-5-yl)phenyl)ethyl)pyrrolidine-2-carboxamide]: at HiBit-BRM fusion protein, the “BRM HiBit Degradation Maximum (%)” value is listed as “A (“A” indicates maximum degradation ≥75%)” and the DC50 was more than 10 nM. Further, the Dmax in assay [1] is less than 50%.

For `Cc1ncsc1-c1ccc([C@H](C)NC(=O)[C@@H]2C[C@@H](O)CN2C(=O)[C@@H](c2cc(N3C[C@@H]4C(c5cc6nnc(-c7ccccc7O)cc6n5C5CC5)[C@H]4C3)no2)C(C)C)cc1` (stereo partly drawn) [Compound 101, (2S,4R)-1-((R)-2-(3-((1S,5S)-6-(5-cyclopropyl-3-(2-hydroxyphenyl)-5H-pyrrolo[3,2-c]pyridazin-6-yl)-3-azabicyclo[3.1.0]hexan-3-yl)isoxazol-5-yl)-3-methylbutanoyl)-4-hydroxy-N-((S)-1-(4-(4-methylthiazol-5-yl)phenyl)ethyl)pyrrolidine-2-carboxamide], on HiBit-BRM fusion protein, the “BRM HiBit Degradation Maximum (%)” value is “A (“A” indicates maximum degradation ≥75%)” and the DC50 is less than 10 nM. In assay [1], the Dmax was more than 50% and the DC50 is more than 10 nM.

Take `Cc1ncsc1-c1ccc([C@H](C)NC(=O)[C@@H]2C[C@@H](O)CN2C(=O)[C@@H](c2cc(-c3cnc(N4CC[C@@H](c5cc6nnc(-c7ccccc7O)cc6n5C5CCC5)C4)nc3)no2)C(C)C)cc1` [Compound 102, (2S,4R)-1-((R)-2-(3-(2-((R)-3-(5-cyclobutyl-3-(2-hydroxyphenyl)-5H-pyrrolo[3,2-c]pyridazin-6-yl)pyrrolidin-1-yl)pyrimidin-5-yl)isoxazol-5-yl)-3-methylbutanoyl)-4-hydroxy-N-((S)-1-(4-(4-methylthiazol-5-yl)phenyl)ethyl)pyrrolidine-2-carboxamide]: at HiBit-BRM fusion protein, the “BRM HiBit Degradation Maximum (%)” value is listed as “A (“A” indicates maximum degradation ≥75%)” and the DC50 was less than 10 nM. In addition, the Dmax in assay [1] is less than 50%.

Take `Cc1ncsc1-c1ccc([C@H](C)NC(=O)[C@@H]2C[C@@H](O)CN2C(=O)[C@@H](c2cc(-c3cnc(N4CC[C@@H](c5cc6nnc(-c7ccccc7O)cc6n5C5(C)CC5)C4)nc3)no2)C(C)C)cc1` [Compound 103, (2S,4R)-4-hydroxy-1-((R)-2-(3-(2-((R)-3-(3-(2-hydroxyphenyl)-5-(1-methylcyclopropyl)-5H-pyrrolo[3,2-c]pyridazin-6-yl)pyrrolidin-1-yl)pyrimidin-5-yl)isoxazol-5-yl)-3-methylbutanoyl)-N-((S)-1-(4-(4-methylthiazol-5-yl)phenyl)ethyl)pyrrolidine-2-carboxamide]: on HiBit-BRM fusion protein, the “BRM HiBit Degradation Maximum (%)” value is “A (“A” indicates maximum degradation ≥75%)” and the DC50 is less than 10 nM. In addition, in assay [1], the Dmax was more than 50% and the DC50 is less than 10 nM.

Take `Cc1ncsc1-c1ccc([C@H](C)NC(=O)[C@@H]2C[C@@H](O)CN2C(=O)[C@@H](c2cc(-c3cnc(N4CC[C@H](c5cc6nnc(-c7ccccc7O)cc6n5C5(C)CC5)C4)nc3)no2)C(C)C)cc1` [Compound 104, (2S,4R)-4-hydroxy-1-((R)-2-(3-(2-((S)-3-(3-(2-hydroxyphenyl)-5-(1-methylcyclopropyl)-5H-pyrrolo[3,2-c]pyridazin-6-yl)pyrrolidin-1-yl)pyrimidin-5-yl)isoxazol-5-yl)-3-methylbutanoyl)-N-((S)-1-(4-(4-methylthiazol-5-yl)phenyl)ethyl)pyrrolidine-2-carboxamide]: on HiBit-BRM fusion protein, the “BRM HiBit Degradation Maximum (%)” value is “A (“A” indicates maximum degradation ≥75%)” and the DC50 was less than 10 nM. Besides, in assay [1], the Dmax is more than 75% and the DC50 is less than 10 nM.

The values are drawn from patent publication US20250302832A1, “PYRAZINE DERIVATIVES AND USES THEREOF” (FOGHORN THERAPEUTICS INC., priority 2022, published 2025).
